Source: US11034932B2, “Composition capable of promoting the growth of denitrifying microorganisms and uses thereof” (CHINA PETROLEUM & CHEMICAL CORPORATION, priority 2016, dated 2021)

System: denitrifying microorganisms
Assay: AO wastewater treatment with promoter 1# plus additive (Example 2)
Conditions: additive (0.05-0.10 mg/L) added along with promoter 1#; process as example 1
Protocol: Hereunder the present invention will be detailed in examples. In the following examples, the COD concentration is measured with the method specified in GB11914-89 “Water Quality—Determination of Chemical Oxygen Demand—Dichromate Method”; the ammonia nitrogen concentration is measured with the method specified in GB7478-87 “Water Quality—Determination of Ammonium—Distillation and Titration Method”; the concentration of nitrite nitrogen is measured with the method specified in GB7493-87 “Water Quality—Determination of Nitrite Nitrogen—Spectrophotometric Method”; the total nitrogen concentration is measured with the method specified in GB11894-89 “Water Quality—Determination of Total Nitrogen—UV Spectrophotometric Method—Alkaline Potassium Persulfate Digestion Method”.
The wastewater is treated according to the treatment process and operating condition described in example 1, but: an additive is added in a certain amount along with the promoter 1#.
Wherein the formic acid hydroxylamine is obtained by mixing a formic acid and a hydroxylamine at 1:1 molar ratio; the acetic acid hydroxylamine is obtained by mixing an acetic acid and a hydroxylamine at 1:1 molar ratio; both of them are […] after they are prepared.

Point of comparison: `NCCCNCCCCNCCCN` [Spermine], “COD in outputted water” value 47.9 mg/L. Against it:
- O=S([O-])[O-].[Na+].[Na+] [Na2SO3] — within 1.5-fold, 44.3 mg/L
- NCCCCNCCCN [Spermidine] — within 1.5-fold, 48.4 mg/L

Point of comparison: `NCCCNCCCCNCCCN` [Spermine], “NH3—N in outputted water” value 9.3 mg/L. Against it:
- O=S([O-])[O-].[Na+].[Na+] [Na2SO3] — within 1.5-fold, 10.0 mg/L
- NCCCCNCCCN [Spermidine] — within 1.5-fold, 8.9 mg/L

Point of comparison: `NCCCNCCCCNCCCN` [Spermine], “NO2^—N in outputted water” value 0.1 mg/L. Against it:
- O=S([O-])[O-].[Na+].[Na+] [Na2SO3] — 2-fold higher, 0.2 mg/L
- NCCCCNCCCN [Spermidine] — 2-fold higher, 0.2 mg/L

Point of comparison: `O=S([O-])[O-].[Na+].[Na+]` [Na2SO3], “TN in outputted water” value 18.2 mg/L. Against it:
- NCCCCNCCCN [Spermidine] — within 1.5-fold, 23.9 mg/L
- NCCCNCCCCNCCCN [Spermine] — within 1.5-fold, 21.3 mg/L
